# Assay results: patent publication US12240857B2 (priority 2017, dated 2025)
# Structures can show the parent of a compound that is named as a salt. Where two headings read alike, the source gives them in different places.
# Tests used:
# [1] = system: EBOV mucin-domain-deleted glycoprotein pseudotyped VSV; assay: microbe, parasite or virus in culture; assay type: cell-based, Zaire ebolavirus; conditions: Zaire ebolavirus, Vero, read-out: EC50 EBOV
# [2] = system: BDBV mucin-domain-deleted glycoprotein pseudotyped VSV; assay: microbe, parasite or virus in culture; assay type: cell-based, Bundibugyo ebolavirus; conditions: Vesicular stomatitis virus, Vero, read-out: EC50 BDBV
# [3] = in vitro; conditions: African green monkey, CC50
Structure (SMILES),EC50 ([1]; 24 h) [nM],EC50 ([2]; 24 h) [nM],EC50 [1] [nM],CC50 [3] [nM],EC50 [2] [nM]
"CC(NC(=O)C1CCCN1)C12CC3CC(CC(C3)C1)C2 (stereo in doubt) [Example D43, (2R)-N-[1-(adamantan-1-yl)ethyl] pyrrolidine-2-carboxamide]",4600,2500,–,–,–
"O=C(N1CCC2(CCN(Cc3ccccc3)C2)C1)C12CC3CC(C1)CC(c1ccccc1)(C3)C2 (stereo not drawn) [Example A1, 2-benzyl-7-[(3-phenyladamantan-1-yl)carbonyl]-2,7-diazaspiro[4.4]nonane]",–,–,220,5800,250
O=C(CNC(=O)C12CC3CC(C1)CC(c1ccccc1)(C3)C2)N1CCC2(CCN(Cc3ccccc3)C2)C1 (stereo not drawn) [Example A2],–,–,300,8500,390
COC(=O)c1ccc(COc2ccccc2CN2CCN(C(=O)CNC(=O)C34CC5CC(C3)CC(c3ccccc3)(C5)C4)CC2)cc1 [Example A3],–,–,30,> 3000,1240
COC(=O)c1ccc(COc2ccccc2CN2CCN(C(=O)CNC(=O)CC34CC5CC(C3)CC(c3ccccc3)(C5)C4)CC2)cc1 [Example A4],–,–,190,> 3000,1240
COC(=O)c1ccc(COc2ccccc2CN2CCN(C(=O)CNC(=O)C34CC5CC(CC3C5)C4)CC2)cc1 [Example A5],–,–,1400,> 3000,3900
O=C(CNC(=O)C12CC3CC(C1)CC(c1ccccc1)(C3)C2)NC1CCN(Cc2ccccc2)CC1 [Example A6],–,–,210,16800,250
O=C(CNC(=O)C12CC3CC(C1)CC(c1ccccc1)(C3)C2)N[C@@H]1CCN(Cc2ccccc2)C1 [Example A7],–,–,480,> 10000,840
O=C(CNC(=O)C12CC3CC(C1)CC(c1ccccc1)(C3)C2)N1CC2CC1CN2Cc1ccccc1 (stereo not drawn) [Example A8],–,–,190,> 10000,220
O=C(N1CC2(CN(Cc3ccccc3)C2)C1)C12CC3CC(C1)CC(c1ccccc1)(C3)C2 [Example A9],–,–,230,10800,290
O=C(N1CC2(CCN(Cc3ccccc3)C2)C1)C12CC3CC(C1)CC(c1ccccc1)(C3)C2 [Example A10],–,–,240,6900,210
O=C(CC12CC3CC(C1)CC(c1ccccc1)(C3)C2)NCC(=O)N1CCC2(CCN(Cc3ccccc3)C2)C1 (stereo not drawn) [Example A11],–,–,200,–,230
O=C(CNC(=O)C12CC3CC(CC1C3)C2)N1CCN(Cc2ccccc2)CC1 [Example A18],–,–,> 10000,–,> 10000
O=C(NC1CCN(Cc2ccccc2)CC1)C12CC3CC(CC1C3)C2 [Example A21],–,–,> 10000,–,> 10000
CN(CCN(C)C(=O)C12CC3CC(C1)CC(c1ccccc1)(C3)C2)Cc1ccccc1 [Example A22],–,–,260,–,220
CN(C(=O)C12CC3CC(C1)CC(c1ccccc1)(C3)C2)C1CCN(Cc2ccccc2)CC1 [Example A23],–,–,210,–,170
CN1CC[C@@H](NC(=O)CC23CC4CC(C2)CC(c2ccccc2)(C4)C3)C1 [Example A40],–,–,310,–,160
O=C(CC12CC3CC(CC(C3)C1)C2)N1CC2CC1CN2Cc1ccccc1 (stereo not drawn) [Example A53],–,–,9200,–,9000
COC(=O)c1ccc(COc2ccccc2CN2CC3CC2CN3C(=O)CC23CC4CC(CC(C4)C2)C3)cc1 (stereo not drawn) [Example A57],–,–,2900,–,> 10000
COC(=O)c1ccc(COc2ccccc2CN2CCC3(CCN(C(=O)CNC(=O)CC45CC6CC(CC(C6)C4)C5)C3)C2)cc1 (stereo not drawn) [Example A59],–,–,1100,–,1500
O=C(NC1CCNCC1)C12CC3CC(C1)CC(c1ccc([N+](=O)[O-])cc1)(C3)C2 [Example A76],–,–,1050,–,1060
CC12CC3CC(C(=O)NCC4(O)CNC4)(C1)CC(c1ccccc1)(C3)C2 (stereo not drawn) [Example A101],–,–,> 1000,–,> 1000
COC(=O)[C@H]1CN(C(=O)C23CC4CC(C)(C2)CC(c2ccccc2)(C4)C3)CCN1 (stereo partly drawn) [Example A106],–,–,> 1000,–,> 1000
CCOC12CC3CC(C1)CC(C(=O)NC1CCNCC1)(C3)C2 [Example A113],–,–,> 1000,–,> 1000

Structure (SMILES),EC50 ([1]; 24 h) [nM],EC50 ([2]; 24 h) [nM],EC50 [1] [nM],CC50 [3] [nM],EC50 [2] [nM]
N[C@H]1CC[C@H](NC(=O)C23CC4CC(C(=O)N5CCCC5)(C2)CC(c2ccccc2)(C4)C3)CC1 (stereo partly drawn) [Example A114],–,–,> 1000,–,> 1000
"N[C@H]1CC[C@H](NC(=O)C23CC4CC(CO)(C2)CC(c2ccccc2)(C4)C3)CC1 (stereo partly drawn) [Example A116, trans-N-(4-aminocyclohexyl)-3-(hydroxymethyl)-5-phenyladamantane-1-carboxamide]",–,–,> 1000,–,> 1000
"CCN1CCN(C(=O)C23CC4CC(C2)CC(c2ccc(C)cc2)(C4)C3)CC1 [Example B16, 1-ethyl-4-{[3-(4-methylphenyl)adamantan 1-yl]carbonyl} piperazine]",1000,900,–,–,–
"CC(C)C(NC(=O)C12CC3CC(CC(C3)C1)C2)C(=O)NC1CCN(Cc2ccccc2)CC1 (stereo not drawn) [Example B17, 2-(adamantan-1-ylformamido)-N-(1-benzylpiperidin-4-yl)-3-methylbutanamide]",> 5000,< 5000,–,–,–
"Cc1ccc(C23CC4CC(CC(C(=O)N5CCN(CCO)CC5)(C4)C2)C3)cc1 [Example B18, 2-(4-{[3-(4-methylphenyl)adamantan-1-yl]carbonyl}piperazin-1-yl)ethan-1-ol]",> 5000,> 5000,–,–,–
"O=C(NC1CCNCC1)C12CC3CC(CC(C3)C1)C2 [Example B19, N-(piperidin-4-yl)adamantane-1-carboxamide]",1100,> 1000,–,–,–
"NCc1ccc(OCC23CC4CC(C2)CC(c2ccccc2)(C4)C3)cc1 [Example C17, {4-[(3-phenyladamantan-1-yl)methoxy]phenyl}methanamine]",–,–,> 1000,–,1200
"COc1ccc(OCC(O)CNCC23CC4CC(CC(C4)C2)C3)c(C(C)(C)C)c1 (stereo not drawn) [Example D2, (adamantan-1-ylmethyl) [3-(2-tert-butyl-4-methoxyphenoxy)-2-hydroxypropyl]amine]",680,620,–,–,–
CCC(NCC(O)COc1ccccc1C(C)C)C12CC3CC(CC(C3)C1)C2 (stereo not drawn) [Example D3],1290,–,–,–,–
COc1cccc(COCC(O)CNCC23CC4CC(CC(C4)C2)C3)c1 (stereo not drawn) [Example D6],3450,1500,–,–,–
"O=C(CN1CCN(CCC23CC4CC(CC(C4)C2)C3)CC1)N1CCCCC1 [Example D7, 2-{4-[2-(adamantan-1-yl)ethyl]piperazin-1-yl}-1-(piperidin-1-yl) ethan-1-one]",6000,2600,–,–,–
"CCC1CCCCN1CC(O)COCCC12CC3CC(CC(C3)C1)C2 (stereo not drawn) [Example D9, 1-[2-(adamantan-1-yl)ethoxy]-3-(2-ethylpiperidin-1-yl)propan-2-ol hydrochloride]",250,210,–,–,–
"OC(COCCC12CC3CC(CC(C3)C1)C2)CN1CCc2ccccc2C1 (stereo not drawn) [Example D14, 1-[2-(adamantan-1-yl)ethoxy]-3-(1,2,3,4-tetrahydroisoquinolin-2-yl) propan-2-ol]",2100,2670,–,–,–
"OC(COCCC12CC3CC(CC(C3)C1)C2)CN1CCN(c2ccccn2)CC1 (stereo not drawn) [Example D15, 1-[2-(adamantan-1-yl)ethoxy]-3-[4-(pyridin-2-yl)piperazin-1-yl] propan-2-ol]",2900,2800,–,–,–
"OCCN(CCO)CC(O)COCCC12CC3CC(CC(C3)C1)C2 (stereo not drawn) [Example D17, 2-({3-[2-(adamantan-1yl)ethoxy]-2-hydroxypropyl}(2-hydroxyethyl)amino)ethan-1-ol]",8800,600,–,–,–
"OC(COC12CC3CC(CC(C3)C1)C2)CN1CCc2ccccc2C1 (stereo not drawn) [Example D18, 1-(adamantan-1-yloxy)-3-(1,2,3,4-tetrahydroisoquinolin-2-yl)propan-2-ol]",> 10000,–,–,–,–
"COc1ccccc1N1CCN(CC(O)COC23CC4CC(CC(C4)C2)C3)CC1 (stereo not drawn) [Example D19, 1-(adamantan-1-yloxy)-3-[4-(2-methoxyphenyl)piperazin-1-yl] propan-2-ol]",> 10000,–,–,–,–
"CC1CCCCN1CC(O)COC12CC3CC(CC(C3)C1)C2 (stereo not drawn) [Example D20, 1-(adamantan-1-yloxy)-3-(2-methylpiperidin-1-yl)propan-2-ol]",> 10000,–,–,–,–
"CN1CCCN(CC(O)COc2ccc(C34CC5CC(CC(C5)C3)C4)cc2)CC1 (stereo not drawn) [Example D30, 1-[4-(adamantan-1-yl)phenoxy]-3-(4-methyl-1,4-diazepan-1-yl)propan-2-ol]",190,470,–,–,–
"OC(COc1ccc(C23CC4CC(CC(C4)C2)C3)cc1)CN1CCN(Cc2ccc3c(c2)OCO3)CC1 (stereo not drawn) [Example D31, 1-[4-(adamantan-1-yl)phenoxy]-3-[4-(2H-1,3-benzodioxo1-5-ylmethyl)piperazin-1-yl]propan-2-ol]",230,1030,–,–,–
"CN(C)CCNS(=O)(=O)c1ccc(C23CC4CC(CC(C4)C2)C3)cc1 [Example D33, 4-(adamantan-1-yl)-N-[2-(dimethylamino)ethyl] benzene-1-sulfonamide]",440,420,–,–,–
"CN1CCN(c2nc(C34CC5CC(CC(C5)C3)C4)cs2)CC1 [Example D35, 1-[4-(adamantan-1-yl)-1,3-thiazol-2-yl]-4-methylpiperazine]",440,620,–,–,–
c1ccn2c(CN3CCCCC3)c(C34CC5CC(CC(C5)C3)C4)nc2c1 [Example D37],8900,3200,–,–,–
"C#CCN1CCC(C(=O)Nc2cc(C34CC5CC(CC(C5)C3)C4)n[nH]2)CC1 [Example D38, N-[5-(adamantan-1-yl)-1H-pyrazol-3-yl]-1-(prop-2-yn-1-yl) piperidine-4-carboxamide]",3700,6800,–,–,–
